Values after ≈ are worked out from the molar mass of the structure shown. Like-named read-outs stand apart in the source and are kept apart here.

Experimental findings from article PMC6689975, “Novel Cell Wall Antifungals Reveal a Special Synergistic Activity in pbr1 Mutants Resistant to the Glucan Synthesis Antifungals Papulacandins and Echinocandins” (Frontiers in Microbiology, 2019) are described below.

Holding throughout (assay): microbe, parasite or virus in culture
Assay [1] has as its system T1, Saccharomyces cerevisiae S. c.^d (wild-type CVX12-3A).
T1 construct: CVX12-3A
The arrangement: species or system yeast; micro tube dilution MIC in YES (± 1.2 M sorbitol), complete growth inhibition by turbidity. The note with it: 48 h, YES + 1.2 M sorbitol. Here is the method: (§1) Standard YEPD (Yeast Extract, Peptone, Dextrose) ([Sherman, 1990]), YEPD+S (YEPD with 1.2M sorbitol), YES (Yeast Extract, Dextrose and Supplements of Adenine, Histidine, Leucine, Uracil and Lysine) ([Alfa et al., 1993]) and YES+S (YES with 1.2 M sorbitol) ([Ribas et al., 1991]; [Ishiguro et al., 1997]), media were used for determination of MIC values of the tested compounds. A stock solution of 10 mg/ml of each tested compounds was prepared in DMSO and serial dilutions in DMSO were prepared. The final concentration of DMSO was 2% in the YEPD medium. […] The serial dilutions of compounds were dispensed into test tubes with 1 ml of YEPD or YEPD+S to make final concentrations of 200, 100, 50, 25, 12.5, 6.26, 3.125, 1.6, 0.8 and 0.4 μg/ml. The tested yeast strains were previously grown in YEPD, YEPD+S, YES or YES+S agar plates at 30°C for 48 h. Micro-culture assays of large numbers of samples were analyzed as described) ([Martins et al., 2011]). Essentially early log-phase cells were grown in YEPD, YEPD+S, YES or YES+S (1.2 M sorbitol) medium at 30°C, and diluted to cell density of 4 X 10^6 cells/ml in YEPD, YEPD+S, YES or YES+S medium and aliquots of 100 μl were dispensed into each small test tube (3 ml test tube size). Then, another 100 μl of YEPD, YEPD+S, YES or YES+S with the corresponding dilution of each compound at 2X concentration (4% DMSO) was added. The final volume was 200 μl, with the cells diluted to of 2 X 10^6 cells/ml and each compound diluted to 1X final concentration, containing increasing concentrations of antifungal (0, 1, 2, 5, 10, 20, 50, 100 and 200 μg/ml) or an equivalent volume of solvent (2% DMSO). The cells were grown at 30°C in an orbital roller and turbidity was analyzed after 24 and 48 h of incubation. The MIC was determined as the minimal concentration of tested compound that produced complete cell growth inhibition and kept the medium clear. The MIC values were calculated from at least three independent experiments.

Assay [2] deals with Candida albicans C. a.^f (Tables 5, 6). Further details: species or system yeast; micro tube dilution MIC in YES (± 1.2 M sorbitol), complete growth inhibition by turbidity. Particulars: 48 h, YES + 1.2 M sorbitol. Here is the method: as §1
Assay [3] deals with Candida albicans C. a.^g (Table 6). Further details: species or system yeast; micro tube dilution MIC in YES (± 1.2 M sorbitol), complete growth inhibition by turbidity. The note with it: 48 h, YES + 1.2 M sorbitol. As for the experimental part: as §1
The test system of assay [4] is T2, Schizosaccharomyces pombe S. p.^a (wild-type 972 h-).
T2 construct: 972 h-
The arrangement: species or system yeast; micro tube dilution MIC in YES (± 1.2 M sorbitol), complete growth inhibition by turbidity. The note with it: 48 h, YES + 1.2 M sorbitol. Here is the method:
as §1

In assay [5] the test system is T3, S. cerevisiae wild-type CVX12-3A.
T3 construct: CVX12-3A
Further details: species or system whole yeast cells; micro-culture broth dilution MIC in YES at 30 C, turbidity, complete growth inhibition. The note with it: Saccharomyces cerevisiae. Here is the method:
as §1, with “experiments. Next, the first generation of isochromanones (1E-16E) was also screened in YES medium (Table 5) and exerted a weaker antifungal potency than in YEPD medium and also than the second family of isochromanones in YES medium (17E-30E) (Table 6). The strains are partly different from the previously mentioned ones (Tables 5, 6) analyzing two wild type C. albicans strains because they behaved similarly in YEPD. It is remarkable that there was no effect against either the C. albicans, the S. cerevisiae, or the S. pombe wild-type strains, except with 30E.” for “experiments.”

In assay [6] the test system is T4, S. pombe wild-type 972 h-.
T4 construct: 972 h-
The arrangement: species or system whole yeast cells; micro-culture broth dilution MIC in YES at 30 C, turbidity, complete growth inhibition. The note with it: Schizosaccharomyces pombe. As for the experimental part: as §1, with “experiments. Next, the first generation of isochromanones (1E-16E) was also screened in YES medium (Table 5) and exerted a weaker antifungal potency than in YEPD medium and also than the second family of isochromanones in YES medium (17E-30E) (Table 6). The strains are partly different from the previously mentioned ones (Tables 5, 6) analyzing two wild type C. albicans strains because they behaved similarly in YEPD. It is remarkable that there was no effect against either the C. albicans, the S. cerevisiae, or the S. pombe wild-type strains, except with 30E.” for “experiments.”

The test system of assay [7] is C. albicans wild-type. Further details: species or system whole yeast cells; micro-culture broth dilution MIC in YES at 30 C, turbidity, complete growth inhibition. The note with it: Candida albicans. As for the experimental part: as §1, with “experiments. Next, the first generation of isochromanones (1E-16E) was also screened in YES medium (Table 5) and exerted a weaker antifungal potency than in YEPD medium and also than the second family of isochromanones in YES medium (17E-30E) (Table 6). The strains are partly different from the previously mentioned ones (Tables 5, 6) analyzing two wild type C. albicans strains because they behaved similarly in YEPD. It is remarkable that there was no effect against either the C. albicans, the S. cerevisiae, or the S. pombe wild-type strains, except with 30E.” for “experiments.”

Assay [8] has as its system C. albicans wild-type. The arrangement: species or system whole yeast cells; macro tube broth dilution MIC in YEPD at 30 C, visual clearness of medium. The note with it: Candida albicans, 48 h, read-out: MIC. As for the experimental part: (§2) Standard YEPD (Yeast Extract, Peptone, Dextrose) ([Sherman, 1990]), YEPD+S (YEPD with 1.2M sorbitol), YES (Yeast Extract, Dextrose and Supplements of Adenine, Histidine, Leucine, Uracil and Lysine) ([Alfa et al., 1993]) and YES+S (YES with 1.2 M sorbitol) ([Ribas et al., 1991]; [Ishiguro et al., 1997]), media were used for determination of MIC values of the tested compounds. A stock solution of 10 mg/ml of each tested compounds was prepared in DMSO and serial dilutions in DMSO were prepared. The final concentration of DMSO was 2% in the YEPD medium. […] The serial dilutions of compounds were dispensed into test tubes with 1 ml of YEPD or YEPD+S to make final concentrations of 200, 100, 50, 25, 12.5, 6.26, 3.125, 1.6, 0.8 and 0.4 μg/ml. The tested yeast strains were previously grown in YEPD, YEPD+S, YES or YES+S agar plates at 30°C for 48 h. For inoculation of YEPD or YEPD+S macro test tubes a suspension of tested fungus was produced with 10^5 cfu/ml (cfu - colony forming unit). 10 μl of suspension was used for inoculation of each tube. After 48 h incubation at 30°C the tubes were checked. The MIC value is the lowest concentration of the tested compound that could inhibit the fungal growth and the medium remained clear. From each tube 10 μl culture was plated on YEPD agar medium to check the contamination. The MIC tests were carried out in three parallels. The screening of the first generation of isochromanones was carried out in YEPD and YEPD+S media (1E-16E). The fungal strains analyzed are: C. albicans wild-type ATCC 26555, SC5314 and ATCC 90028, S. cerevisiae wild-type CVX12-3A and pbr1-1 mutant, and S. pombe wild-type (972h^–), pbr1-8 mutant and pbr1-6 mutant. The bold numbers in Tables 4–6 indicate the more efficient compounds. […] The weak or moderate efficacy against the C. albicans wild-type strains was observed by some substances (3E, 4Z, 5Z, 10E, 15, and 16E). The efficiency toward the S. pombe pbr1-6 mutant strain was the highest inhibitory activity, except 7E, 11E, 12 and 14E. […] As regards the other S. pombe pbr1-8 mutant strain, the antifungal activity of the tested compounds was slightly lower, but the substances with the best activity are partly identical to the best compounds mentioned with pbr1-6, (i.e., 1E, 3E, 4Z, 5Z).

The subject of assay [9] is C. albicans wild-type. Further details: species or system whole yeast cells; macro tube broth dilution MIC in YEPD at 30 C, visual clearness of medium. The note with it: Candida albicans, 48 h, read-out: MIC. Here is the method:
as §2
This is another data set of the same source.

For assay [10], the system named is T3, S. cerevisiae wild-type CVX12-3A. Further details: species or system whole yeast cells; macro tube broth dilution MIC in YEPD at 30 C, visual clearness of medium. The note with it: Saccharomyces cerevisiae, 48 h, read-out: MIC. Here is the method: as §2
In assay [11] the test system is T4, S. pombe wild-type 972 h-. Further details: species or system whole yeast cells; macro tube broth dilution MIC in YEPD at 30 C, visual clearness of medium. Particulars: Schizosaccharomyces pombe, 48 h, read-out: MIC. Here is the method: as §2
Assay [12] has as its system C. albicans wild-type. The arrangement: species or system whole yeast cells; macro tube broth dilution MIC in YEPD at 30 C, visual clearness of medium. The note with it: Candida albicans, 48 h, read-out: MIC. As for the experimental part: as §2
This is another data set of the same source.

`O=C1OCc2ccccc2/C1=C\c1ccc2c(c1)OCO2` [27E]: the MIC in [1], in assay [2], in assay [3], in [4], in assay [5] (YES medium) and in assay [6] (YES medium) was > 200 µg/mL in each case. The MIC was > 200 µg/mL in [7] (YES medium, C. albicans strain f) and > 200 µg/mL in assay [7] (YES medium, C. albicans strain g).
For the compound `O=C1OCc2ccccc2/C1=C\c1ccccc1[N+](=O)[O-]` [11E], the MIC in assay [8] was > 200 µg/mL; in assay [9], > 200 µg/mL; in assay [5] (read-out: MIC), > 200 µg/mL; in assay [6] (read-out: MIC), > 200 µg/mL; in [7] (read-out: MIC) it was > 200 µg/mL; in assay [10], 200 µg/mL (≈ 711 µM). For the same compound, the values for the MIC in assay [11] and in [12] were 100 µg/mL (≈ 356 µM) and > 200 µg/mL, respectively.
Take `Cn1cccc1/C=C1/C(=O)OCc2ccccc21` [4E]: the MIC is 200 µg/mL (≈ 836 µM) in assay [8]; 200 µg/mL (≈ 836 µM) in assay [9]; > 200 µg/mL in assay [5] (read-out: MIC); > 200 µg/mL in assay [6] (read-out: MIC); > 200 µg/mL in assay [7] (read-out: MIC); 100 µg/mL (≈ 418 µM) in assay [10]. The MIC amounted to 50 µg/mL (≈ 209 µM) in [11] and 200 µg/mL (≈ 836 µM) in [12].
As for `Cn1cccc1/C=C1\C(=O)OCc2ccccc21` [4Z], the MIC is 12.5 µg/mL (≈ 52.2 µM) in assay [8]; 50 µg/mL (≈ 209 µM) in assay [9]; > 200 µg/mL in assay [5] (read-out: MIC); > 200 µg/mL in assay [6] (read-out: MIC); > 200 µg/mL in assay [7] (read-out: MIC); 12.5 µg/mL (≈ 52.2 µM) in [10]. Further, the MIC in [11] and in [12] was 25 µg/mL (≈ 104 µM) each time.
With `O=C1OCc2ccccc2/C1=C\c1ccc(C(=O)O)cc1` [2E], the MIC is 200 µg/mL (≈ 714 µM) in assay [8]; 200 µg/mL (≈ 714 µM) in [9]; > 200 µg/mL in [5] (read-out: MIC); > 200 µg/mL in assay [6] (read-out: MIC); > 200 µg/mL in [7] (read-out: MIC); 100 µg/mL (≈ 357 µM) in assay [10]. In addition, the MIC in assay [11] turned out to be 50 µg/mL (≈ 178 µM); in assay [12], 200 µg/mL (≈ 714 µM).
`O=C1OCc2ccccc2/C1=C\c1ccccc1` [1E]: the MIC in [8] was 200 µg/mL (≈ 846 µM); in assay [9], 200 µg/mL (≈ 846 µM); in [5] (read-out: MIC), > 200 µg/mL; in [6] (read-out: MIC) it was > 200 µg/mL; in assay [7] (read-out: MIC), > 200 µg/mL; in assay [10], 100 µg/mL (≈ 423 µM). The MIC in assay [11] was 25 µg/mL (≈ 106 µM); in assay [12] it was 200 µg/mL (≈ 846 µM).
Take `COc1cccc(/C=C2/C(=O)OCc3ccccc32)c1OC` [9E]: the MIC was 100 µg/mL (≈ 337 µM) in assay [8]; 100 µg/mL (≈ 337 µM) in assay [9]; > 200 µg/mL in assay [5] (read-out: MIC); > 200 µg/mL in assay [6] (read-out: MIC); > 200 µg/mL in [7] (read-out: MIC); 100 µg/mL (≈ 337 µM) in assay [10]. The figures for the MIC in [11] and in assay [12] were 50 µg/mL (≈ 169 µM) and 100 µg/mL (≈ 337 µM), respectively.
Regarding `O=C1OCc2ccccc2/C1=C\c1ccccc1Br` [14E], the MIC in assay [8] is > 200 µg/mL; in assay [9], 200 µg/mL (≈ 635 µM); in [5] (read-out: MIC) it was > 200 µg/mL; in assay [6] (read-out: MIC), > 200 µg/mL; in assay [7] (read-out: MIC), > 200 µg/mL; in [10], 25 µg/mL (≈ 79.3 µM). For the same compound, the MIC stood at 50 µg/mL (≈ 159 µM) in assay [11] and 200 µg/mL (≈ 635 µM) in [12].
